The numbers were not newly measured in patent publication US8613858B2, “Separation process” (Dupont Nutrition Biosciences APS, priority 2005, dated 2013), which cites them from elsewhere.

For series [1] the following is noted: characteristic properties of model compounds.
For series [2] the following is noted: characteristic properties of model compounds. The source holds these as a separate data set.

For the compound `C[N+](C)(C)CC(=O)O` [Betaine], the LogPOW in series [1] is listed as −2.93. Besides, the Water solubility in series [2] was 611 mg/mL. Consider `O=C(O)CC(O)(CC(=O)O)C(=O)O` [Citric acid], for which, in series [1], the LogPOW is −1.67. For the compound `OCC(O)CO` [Glycerol], the LogPOW in series [1] is on record as −1.76.
